According to patent US20250109120A1, “INDOLINE DERIVATIVES FOR TREATMENT AND/OR PREVENTION OF TUMOR OR CELL PROLIFERATIVE AND FIBROSIS DISEASES” (NATIONAL TAIWAN UNIVERSITY, priority 2023, published 2025):
pIC50: −log10 of the molar value.

What was measured:
A549 cells [1] = test: TGF-β1-induced EMT protein expression, western blot; type: cell-based, human; conditions: test compounds 2 μM, senexin A 5 μM, pirfenidone 1 mM; TGF-β1 10 ng/mL
Method: FIGS. 4A-4B show the inhibition of epithelial-to-mesenchymal transition protein expressions by CDK8 inhibitors in human alveolar epithelial cells. […] Cell lysates were subjected to a Western blot analysis using the indicated antibodies. Results are shown as the mean t SEM from three independent experiments. *p<0.05, and ***p<0.001 compared to the control group; #p<0.05, ##p<0.01, and ###p<0.001 compared to the TGF-β1-treated group. […] Cell viabilities were determined by an MTT assay. Results are shown as the mean t SEM of three independent experiments.
(§1) Cells (106) were incubated for 10 min at 4° C. in lysis buffer (20 mM HEPES at pH 7.4, 2 mM EGTA, 50 mM β-glycerophosphate, 0.1% Triton X-100, 10% glycerol, 1 mM DTT, 1 μg/mL of leupeptin, 5 μg/mL of aprotinin, 1 mM phenylmethylsulfonyl fluoride, and 1 mM sodium orthovanadate), scraped off, incubated on ice for an additional 10 min, and centrifuged at 17,000 g for 30 min at 4° C. Protein samples (20 μg) were then electrophoresed on SDS-polyacrylamide gel electrophoresis (PAGE) gels and transferred to a nitrocellulose membrane, which was then blocked by incubation for 30 min at room temperature with 5% bovine serum albumin (BSA) in Tris-buffered saline with 0.1% Tween-20 (TBST). Immunoblotting was performed by overnight incubation at 4° C. with primary antibodies in TBST, followed by incubation for 1 h at room temperature with horseradish peroxidase (HRP)-conjugated secondary antibodies. Bound antibodies were measured using enhanced chemiluminescence (ECL) reagent (GE Healthcare, UK) and exposed to photographic film.

A549 cells [2] = test: Nuclear p-Smad3 T179 and RNA polymerase II pS2/S5 after TGF-β1, fractionation and western blot; type: cell-based, human; conditions: compound k 5 μM, senexin A 5 μM, pirfenidone 1 mM; TGF-β1 10 ng/ml 3 h
Method: FIGS. 8A-8B show the inhibitory effects of cellular distributions of TGF-β1-induced p-Smad3 T179, RNA polymerase II pS2/S5, and Smad3 after treatment with compound k. Human alveolar epithelial A549 cells were incubated with compound k (5 μM), senexin A (5 μM), or pirfenidone (1 mM) for 1 h, followed by stimulation with TGF-β1 (10 ng/ml) for 3 h. Protein expressions in the cytoplasmic and nuclear fractions were subjected to a Western blot analysis using the indicated antibodies. α-Tubulin and histone H3 served as loading controls for the cytoplasmic and nuclear fractions, respectively. Results are shown as the mean±SEM of three independent experiments. **p<0.01 and ***p<0.001 compared to the control group; #p<0.05 and ##p<0.01 compared to the TGF-β1-treated group.
as §1
A Nuclear/Cytosol Fractionation Kit (Biovision, USA) was used to separate the cytosolic and nuclear fractions. […]

DU145 cells = test: LiCl-induced β-catenin signaling, western blot; type: cell-based, human; conditions: LiCl 20 mM; senexin A 10 μM
Method: Inhibitory phosphorylation of GSK3β was evaluated through western blotting. […] Whole-cell lysates were subjected to western blotting with the indicated antibodies. FIGS. 11J-11K show the comparison of basal activities of the Akt/GSK3β axis between PC-3 and DU145 cells. […] The results are shown as the mean±SEM from at least three independent experiments (*p<0.05, **p<0.01, ***p<0.001 vs. control group; #p<0.05, ##p<0.01, and ###p<0.001 vs. relevant control).
The cells were incubated in lysis buffer for 10 min at 4° C., scraped off, incubated on ice for an additional 10 min and then centrifuged at 17,000 g for 30 min at 4° C. Protein samples were electrophoresed on SDS-PAGE gels, transferred to PVDF membranes and blocked with 5% fat-free milk in PBS for 30 min at room temperature. Immunoblotting was performed overnight with primary antibodies in PBS at 4° C., followed by incubation with HRP-conjugated secondary antibodies for 1 h at room temperature. Bound antibodies will be measured using an ECL reagent and exposed to a photographic film. In the immunoprecipitation assay, cell lysates were immunoprecipitated with 1 μg of antibody and A/G agarose beads overnight at 4° C. After washing the precipitated beads three times with 1 mL ice-cold cell lysis buffer, bound immune complexes were separated by 10% SDS-PAGE and analyzed with immunoblotting.

CDK8 = CDK8 (Homo sapiens (Human), UniProt P49336); conditions: commercial CDK8 inhibitor; cited from earlier work
CDK8, sequence (P49336 whole entry, looked up, species assumed): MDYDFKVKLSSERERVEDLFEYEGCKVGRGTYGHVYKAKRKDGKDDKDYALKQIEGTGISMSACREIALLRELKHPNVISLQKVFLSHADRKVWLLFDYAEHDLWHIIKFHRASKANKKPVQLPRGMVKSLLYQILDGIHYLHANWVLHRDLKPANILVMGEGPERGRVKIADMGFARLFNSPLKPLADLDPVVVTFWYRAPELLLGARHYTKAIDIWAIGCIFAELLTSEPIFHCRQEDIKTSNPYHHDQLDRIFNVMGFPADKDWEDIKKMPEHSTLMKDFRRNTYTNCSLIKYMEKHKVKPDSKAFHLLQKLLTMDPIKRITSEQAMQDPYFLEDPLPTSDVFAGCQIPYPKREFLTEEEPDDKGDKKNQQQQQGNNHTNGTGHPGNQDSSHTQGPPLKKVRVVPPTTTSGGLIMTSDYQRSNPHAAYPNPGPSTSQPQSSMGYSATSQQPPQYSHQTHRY
CDK8, sequence (P24863 whole entry partner, looked up, species assumed): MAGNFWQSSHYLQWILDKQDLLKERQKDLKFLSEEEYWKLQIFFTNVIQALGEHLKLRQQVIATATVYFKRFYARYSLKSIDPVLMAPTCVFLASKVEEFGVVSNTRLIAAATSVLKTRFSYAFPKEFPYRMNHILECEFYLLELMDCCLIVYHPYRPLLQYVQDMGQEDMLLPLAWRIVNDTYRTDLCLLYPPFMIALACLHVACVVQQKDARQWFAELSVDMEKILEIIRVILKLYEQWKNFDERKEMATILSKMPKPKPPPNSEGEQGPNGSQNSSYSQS

## N#Cc1ccc2ncnc(NCCc3ccccc3)c2c1 [Senexin A, reference compound]
A549 cells [1]
  TGF-β1-triggered EMT protein expressions: slight inhibition
A549 cells [2]
  phosphorylation of p-Smad3 T179 and RNA Pol II pSer2/5: less-potent inhibition
DU145 cells
  levels of active form of β-catenin and Snail: reduced the levels
CDK8
  pIC50: 6.55
